Assay results taken from paper PMC10762035, “Molecular basis of human trace amine-associated receptor 1 activation” (Nature Communications, 2024).
Residue numbers refer to the chain shown, from its start. Several values for one entry are separate records, joined by “and”; a condition that tells them apart may be missing. Identical values can stand only once.

What was measured:
Type in all cases: cell-based
hTA1 b2N = target: T1, hTA1 b2N (Homo sapiens, UniProt Q96RJ0); experiment: GloSensor cAMP accumulation assay, b2N construct; details: b2N, n=2
T1 construct: read by me as the first 25 residues of β2AR (N); expressed in transfected cells; host or cells: HEK293T
T1 sequence (Q96RJ0 with tags, fused parts or gaps): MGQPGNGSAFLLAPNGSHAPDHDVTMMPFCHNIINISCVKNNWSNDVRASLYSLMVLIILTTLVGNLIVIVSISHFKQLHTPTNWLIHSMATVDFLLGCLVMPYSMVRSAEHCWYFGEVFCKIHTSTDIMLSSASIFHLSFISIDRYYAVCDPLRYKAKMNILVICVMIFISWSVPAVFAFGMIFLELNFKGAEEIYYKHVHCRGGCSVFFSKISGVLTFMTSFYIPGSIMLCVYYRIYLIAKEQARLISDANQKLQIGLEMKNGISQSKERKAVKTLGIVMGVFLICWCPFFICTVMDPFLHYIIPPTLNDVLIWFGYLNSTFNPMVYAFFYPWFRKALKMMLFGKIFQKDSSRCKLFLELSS

hTA1 C96S = target: T2, hTA1 C96S (Homo sapiens, UniProt Q96RJ0, C96S); experiment: GloSensor cAMP accumulation assay, C96S mutant; details: log[Compound]
T2 construct: expressed in transfected cells; host or cells: HEK293T
T2 sequence (Q96RJ0 1-339 C96S): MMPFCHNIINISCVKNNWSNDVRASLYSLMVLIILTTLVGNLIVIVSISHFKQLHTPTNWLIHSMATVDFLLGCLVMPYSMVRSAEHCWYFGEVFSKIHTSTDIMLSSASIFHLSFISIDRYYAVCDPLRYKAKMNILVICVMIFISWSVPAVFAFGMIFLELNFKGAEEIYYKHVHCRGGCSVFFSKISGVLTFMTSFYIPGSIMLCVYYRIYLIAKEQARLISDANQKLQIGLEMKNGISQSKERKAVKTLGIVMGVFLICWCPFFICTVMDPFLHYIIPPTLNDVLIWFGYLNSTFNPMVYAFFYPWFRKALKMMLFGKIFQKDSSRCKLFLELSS

hTA1 C178S = target: T3, hTA1 C178S (Homo sapiens, UniProt Q96RJ0, C178S); experiment: GloSensor cAMP accumulation assay, C178S mutant; details: for C178S - Normalized Luminescence Counts (N=2): log[Compound], single replicates
T3 construct: expressed in transfected cells; host or cells: HEK293T
T3 sequence (Q96RJ0 1-339 C178S): T2 sequence (Q96RJ0 1-339 C96S) with S96C, C178S

hTA1 S107C = target: T4, hTA1 S107C (Homo sapiens, UniProt Q96RJ0, S107C); experiment: GloSensor cAMP accumulation assay, S107C mutant;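 further: cells transiently co-expressing receptor and GloSensor biosensor, luminescence read after 30 min agonist exposure at room temperature, concentration-response fitted by nonlinear regression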
T4 construct: expressed in transfected cells; host or cells: HEK293T
T4 sequence (Q96RJ0 1-339 S107C): T2 sequence (Q96RJ0 1-339 C96S) with S96C, S107C

hTA1 V184P = target: T5, hTA1 V184P (Homo sapiens, UniProt Q96RJ0, V184P); experiment: GloSensor cAMP accumulation assay, V184P mutant; details: for cAMP accumulation response, single replicate values (source data, Supplementary Figure 5): hTA1 V184P (N=2), log[Compound]
T5 construct: expressed in transfected cells; host or cells: HEK293T
T5 sequence (Q96RJ0 1-339 V184P): T2 sequence (Q96RJ0 1-339 C96S) with S96C, V184P

[1] = C178S, each row one experiment (N=2), 3 replicates

## Cc1c(F)cccc1[C@H]1COC(N)=N1 [Ro5263397]
hTA1 b2N
  Span ± SEM (Emax normalized to β-PEA): 78.31 ± 9.88
  pEC50 ± SEM: 9.18 ± 0.09
hTA1 b2N; read-out: EC50
  EC50: 0.66 nM
hTA1 C96S; C96S, M = -5, single replicates (N=2)
  Normalized Luminescence Counts: 9.313 (2×) and 10.6308 and 10.8582 and 5.048 and -2.698
hTA1 C96S; C96S, M = -5.522, single replicates (N=2)
  Normalized Luminescence Counts: 2.723 and 6.018 and 1.4045 and 10.8582 and 101.879 and 20.5413
hTA1 C96S; C96S, M = -6, single replicates (N=2)
  Normalized Luminescence Counts: 1.4045 (2×) and 2.064 and 3.112 and 14.7315 and -4.6346
hTA1 C96S; C96S, M = -6.522, single replicates (N=2)
  Normalized Luminescence Counts: -1.891 (2×) and 0.08646 and -2.698 (2×) and -0.7614
hTA1 C96S; C96S, M = -7, single replicates (N=2)
  Normalized Luminescence Counts: -0.5726 and 2.723 and -2.55 and 37.9707 and -8.508 and -4.6346
hTA1 C96S; C96S, M = -7.522, single replicates (N=2)
  Normalized Luminescence Counts: 2.064 and 1.4045 and -1.232 and -2.698 and 12.7948 and -14.3176
hTA1 C96S; C96S, M = -8, single replicates (N=2)
  Normalized Luminescence Counts: -0.5726 and 0.08646 and -1.891 and 14.7315 (3×)
hTA1 C96S; C96S, M = -8.522, single replicates (N=2)
  Normalized Luminescence Counts: 0.08646 and 2.064 and -1.232 and 22.4779 and 6.985 (2×)
hTA1 C96S; C96S, M = -9, single replicates (N=2)
  Normalized Luminescence Counts: -3.868 and 0.08646 and -3.209 and 10.8582 (3×)
hTA1 C96S; C96S, M = -9.522, single replicates (N=2)
  Normalized Luminescence Counts: -3.209 and 0.08646 and -5.186 and 1.175 and 3.112 (2×)
hTA1 C96S; C96S, M = -10, single replicates (N=2)
  Normalized Luminescence Counts: -3.209 and 0.08646 and -0.5726 and 28.2877 and 5.048 and 61.21
hTA1 C96S; C96S, M = -10.522, single replicates (N=2)
  Normalized Luminescence Counts: -2.55 and -0.5726 and -3.868 and -0.7614 (2×) and 1.175
hTA1 C96S; C96S, M = -11, single replicates (N=2)
  Normalized Luminescence Counts: 0.7455 (2×) and 4.041 and 47.6538 and 53.4636 and 12.7948
hTA1 C96S; C96S, M = -11.522, single replicates (N=2)
  Normalized Luminescence Counts: 2.064 and 4.7 and 0.08646 and 8.922
hTA1 C96S; M = -11.522, single replicates, mutant block above C178S
  Normalized Luminescence Counts: 1.347 and 1.551 and 1.574 and 1.444 and 1.07 and 0.4821
hTA1 C96S; M = -12, single replicates, mutant block above C178S
  Normalized Luminescence Counts: 2.211 and 3.099 and 1.62 and 0.7492 and 1.283 and 0.5889
hTA1 C96S; M = -12.522, single replicates, mutant block above C178S
  Normalized Luminescence Counts: 0.07201 and 0.2541 and -0.1784 and 1.444 and 0.7492 and -0.5864
hTA1 C178S; [1]
  pEC50 values, Mean: 8.162 and 8.579
  ΔpEC50 values (each mutant value - WT average), Mean: -0.6693 and -0.2522
hTA1 C178S; C178S, n=2
  Span ± SEM (Emax normalized to β-PEA): 105.17
  pEC50 ± SEM: 8.37 ± 0.09
hTA1 C178S; C178S, n=2, read-out: EC50
  EC50: 4.26 nM
hTA1 C178S; C178S, relative to β-PEA
  Emax: 105.2%
hTA1 C178S; C178S, β-PEA = 100, each row one experiment (N=2), 3 replicates
  Emax values, Mean: 92.0056 and 118.332
hTA1 C178S; M = -5
  C178S - Normalized Luminescence Counts (N=2): 116.512 and 98.9884 and 102.82 and 110.453 and 111.171 and 57.8292
hTA1 C178S; M = -5.522
  C178S - Normalized Luminescence Counts (N=2): 90.6706 and 92.2127 and 73.4274 and 137.917 and 164.274 and 131.185
hTA1 C178S; M = -6
  C178S - Normalized Luminescence Counts (N=2): 100.344 and 93.0071 and 81.792 and 122.18 and 154.88 and 155.328
hTA1 C178S; M = -6.522
  C178S - Normalized Luminescence Counts (N=2): 92.3996 and 91.979 and 98.7081 and 121.313 and 114.761 and 110.333
hTA1 C178S; M = -7
  C178S - Normalized Luminescence Counts (N=2): 78.9882 and 76.0443 and 77.119 and 120.565 and 138.096 and 118.74
hTA1 C178S; M = -7.522
  C178S - Normalized Luminescence Counts (N=2): 86.6519 and 72.9134 and 81.9322 and 98.8752 and 109.017 and 95.5544
hTA1 C178S; M = -8
  C178S - Normalized Luminescence Counts (N=2): 48.9411 and 58.2403 and 50.0626 and 103.512 and 85.5323 and 112.428
hTA1 C178S; M = -8.522
  C178S - Normalized Luminescence Counts (N=2): 29.268 and 30.1559 and 35.3428 and 67.4924 and 67.6121 and 48.0464
hTA1 C178S; M = -9
  C178S - Normalized Luminescence Counts (N=2): 15.623 and 14.3146 and 15.5763 and 45.7428 and 46.9395 and 50.4398
hTA1 C178S; M = -9.522
  C178S - Normalized Luminescence Counts (N=2): 4.128 and 7.025 and 6.23 and 17.8303 and 18.7278 and 23.3949
hTA1 C178S; M = -10
  C178S - Normalized Luminescence Counts (N=2): 3.707 (2×) and 2.258 and 5.325 and 8.915 and 9.424
hTA1 C178S; M = -10.522
  C178S - Normalized Luminescence Counts (N=2): 1.885 and 0.4359 and 0.8097 and 2.513 and 2.752 and 5.684
hTA1 C178S; M = -11
  C178S - Normalized Luminescence Counts (N=2): 0.4826 and 1.043 and -0.5921 and 4.667 and 6.223 and 4.577
hTA1 C178S; M = -11.522
  C178S - Normalized Luminescence Counts (N=2): 0.9967 and 0.3892 and 0.01533 and 3.919 and 5.445 and 4.457
hTA1 C178S; M = -12
  C178S - Normalized Luminescence Counts (N=2): 2.258 and 1.511 (2×) and 2.7223 and 4.936 and 4.158
hTA1 C178S; M = -12.522
  C178S - Normalized Luminescence Counts (N=2): 0.1555 and 0.7163 and 0.9032 and 5.3849 and 3.7993 and 4.607
hTA1 S107C; S107C
  decrease in potency vs wild type: approximately 100 fold
hTA1 S107C; S107C mutant minus WT average
  ΔEmax values (each mutant value - WT average): 21.9095
hTA1 S107C; S107C mutant, each line an independent experiment, 3 replicates
  pEC50 values, Mean: 7.847 and 7.402
hTA1 S107C; S107C mutant, β-PEA = 100, each line an independent experiment, 3 replicates
  Emax values, Mean: 108.613 and 99.8921
hTA1 S107C; S107C, n=2
  Span ± SEM (Emax normalized to β-PEA): 112.19
  pEC50 ± SEM: 6.61 ± 0.80
hTA1 S107C; S107C, n=2, read-out: EC50
  EC50: 248 nM
hTA1 V184P; V184P, n=2
  Span ± SEM (Emax normalized to β-PEA): 67.49 ± 4.18
  pEC50 ± SEM: 8.72 ± 0.1
hTA1 V184P; V184P, n=2, read-out: EC50
  EC50: 1.89 nM
hTA1 V184P; M = -5
  cAMP accumulation response, single replicate values (source data, Supplementary Figure 5): 75.9826 and 54.4514 and 68.5146 and 68.2232 and 103.41 and 63.2018
hTA1 V184P; M = -5.522
  cAMP accumulation response, single replicate values (source data, Supplementary Figure 5): 60.8526 and 56.6821 and 51.6388 and 54.9916 and 88.8585 and 75.7736
hTA1 V184P; M = -6
  cAMP accumulation response, single replicate values (source data, Supplementary Figure 5): 62.1134 and 62.7923 and 57.749 and 52.2793 and 90.2146 and 61.0026
hTA1 V184P; M = -6.522
  cAMP accumulation response, single replicate values (source data, Supplementary Figure 5): 55.2273 and 58.8159 and 63.0833 and 59.17 and 90.5079 and 61.9556
hTA1 V184P; M = -7
  cAMP accumulation response, single replicate values (source data, Supplementary Figure 5): 76.2736 and 57.458 and 63.8592 and 78.4492 and 93.4034 and 75.9935
hTA1 V184P; M = -7.522
  cAMP accumulation response, single replicate values (source data, Supplementary Figure 5): 63.0833 and 60.2707 and 53.2876 and 78.6325 and 73.831 and 68.1499
hTA1 V184P; M = -8
  cAMP accumulation response, single replicate values (source data, Supplementary Figure 5): 45.7226 and 42.0371 and 33.6962 and 79.732 and 85.8896 and 81.3081
hTA1 V184P; M = -8.522
  cAMP accumulation response, single replicate values (source data, Supplementary Figure 5): 24.6764 and 22.5426 and 25.9372 and 54.0753 and 61.6257 and 60.123
hTA1 V184P; M = -9
  cAMP accumulation response, single replicate values (source data, Supplementary Figure 5): 15.8505 and 15.9475 and 14.9776 and 42.9696 and 48.944 and 40.6972
hTA1 V184P; M = -9.522
  cAMP accumulation response, single replicate values (source data, Supplementary Figure 5): 5.57 and 4.794 and 3.436 and 18.8157 and 20.0985 and 19.2188
hTA1 V184P; M = -10
  cAMP accumulation response, single replicate values (source data, Supplementary Figure 5): -0.05538 and 0.9145 and 0.6235 and 8.626 and 10.7888 and 9.213
hTA1 V184P; M = -10.522
  cAMP accumulation response, single replicate values (source data, Supplementary Figure 5): -0.8313 and -0.6373 and -1.025 and 2.3587 and 2.835 and 2.469
hTA1 V184P; M = -11
  cAMP accumulation response, single replicate values (source data, Supplementary Figure 5): -0.6373 and -0.7343 and -1.316 and 1.442 and 2.102 and 1.039
hTA1 V184P; M = -11.522
  cAMP accumulation response, single replicate values (source data, Supplementary Figure 5): -1.025 and -1.607 and -1.51 and 0.1962 and 0.9659 and -0.5735
hTA1 V184P; M = -12
  cAMP accumulation response, single replicate values (source data, Supplementary Figure 5): -0.9283 and -1.122 and -1.4132 and 19.5854 and 20.7216 (2×)
hTA1 V184P; M = -12.522
  cAMP accumulation response, single replicate values (source data, Supplementary Figure 5): -1.316 and -1.219 and -0.9283 and 4.704 and 5.621 and 6.281
hTA1 V184P; hTA1 V184P mutant, Figure 3B source data, each grid row a separate experiment, 3 replicates
  pEC50 values, Mean: 8.393 and 9.05
hTA1 V184P; hTA1 V184P mutant, β-PEA set to 100, each grid row a separate experiment, 3 replicates
  Emax values, Mean: 63.3156 and 71.6719
